Measured values from patent publication US20250114338A1, “TETRAHYDRO-PYRIDO[3,4-b]INDOLE ESTROGEN RECEPTOR MODULATORS AND USES THEREOF” (Genentech, Inc., priority 2014, published 2025).

Test system: ER-alpha MCF7
Assay: ER-alpha MCF7 HCS EC50; stated as measured by in vitro cell proliferation assays of Examples 902 and 903
Type: cell-based
Conditions: Homo sapiens, MCF7, MCF7 cells; Table 2
Procedure, shortened: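 MCF7 cells seeded 1000-2000 cells/well for 16 h, then treated with nine-point 1:2 DMSO dilution series in quadruplicate at 37 °C, 5% CO2 for 4 days. Viable cells quantified by CellTiter-Glo ATP luminescence; EC50 calculated. Controls: fulvestrant at final 100 nM, DMSO 0.2% v/v.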

SMILES | EC50 [nM]
C[C@@H]1Cc2c([nH]c3ccccc23)[C@H](c2c(F)cc(OCCN3CC(CF)C3)cc2F)N1CC(F)(F)F [Example 175, (1S,3R)-1-[2,6-difluoro-4-[2-[3-(fluoromethyl)azetidin-1-yl]ethoxy]phenyl]-3-methyl-2-(2,2,2-trifluoroethyl)-1,3,4,9-tetrahydropyrido[3,4-b]indole] | 14
COC(CCN1CC(Oc2cc(F)c([C@@H]3c4[nH]c5ccccc5c4C[C@@H](C)N3CC(C)(C)F)c(F)c2)C1)OC [Example 176, (1R,3R)-1-[4-[1-(3,3-dimethoxypropyl)azetidin-3-yl]oxy-2,6-difluoro-phenyl]-2-(2-fluoro-2-methyl-propyl)-3-methyl-1,3,4,9-tetrahydropyrido[3,4-b]indole] | 0.031
C[C@@H]1Cc2c([nH]c3ccccc23)[C@@H](c2ccc(OC3CN(CCCF)C3)cc2F)N1CC(C)(C)F [Example 177, (1R,3R)-1-[2-fluoro-4-[1-(3-fluoropropyl)azetidin-3-yl]oxy-phenyl]-2-(2-fluoro-2-methyl-propyl)-3-methyl-1,3,4,9-tetrahydropyrido[3,4-b]indole] | 0.164
CC(C)(F)CN1CCc2c([nH]c3ccccc23)C1c1c(F)cc(OCCN2CC(CF)C2)cc1F (stereo not drawn) [Example 178, 1-[2,6-difluoro-4-[2-[3-(fluoromethyl)azetidin-1-yl]ethoxy]phenyl]-2-(2-fluoro-2-methyl-propyl)-1,3,4,9-tetrahydropyrido[3,4-b]indole] | 0.5
C[C@@H]1Cc2c([nH]c3ccccc23)[C@H](c2ccc(OCCN3CC(CF)C3)cc2)N1S(C)(=O)=O [Example 179, (1S,3R)-1-[4-[2-[3-(fluoromethyl)azetidin-1-yl]ethoxy]phenyl]-3-methyl-2-methylsulfonyl-1,3,4,9-tetrahydropyrido[3,4-b]indole] | 13
C[C@@H]1Cc2c([nH]c3ccccc23)[C@@H](c2ccc(OCCN3CC(CF)C3)cc2)N1S(C)(=O)=O [Example 180, (1R,3R)-1-(4-(2-(3-(fluoromethyl)azetidin-1-yl)ethoxy)phenyl)-3-methyl-2-(methylsulfonyl)-2,3,4,9-tetrahydro-1H-pyrido[3,4-b]indole] | 0.222
CC(CO)C(=O)N1[C@H](c2c(F)cc(OCCN3CC(CF)C3)cc2F)c2[nH]c3ccccc3c2C[C@H]1C (stereo partly drawn) [Example 181, 1-((1R,3R)-1-(2,6-difluoro-4-(2-(3-(fluoromethyl)azetidin-1-yl)ethoxy)phenyl)-3-methyl-3,4-dihydro-1H-pyrido[3,4-b]indol-2(9H)-yl)-3-hydroxy-2-methylpropan-1-one] | 4
C[C@@H]1Cc2c([nH]c3ccccc23)[C@@H](c2c(F)cc(OCCN3CC(CF)C3)cc2F)N1C(=O)C1CNC1 [Example 182, azetidin-3-yl-[(1R,3R)-1-[2,6-difluoro-4-[2-[3-(fluoromethyl)azetidin-1-yl]ethoxy]phenyl]-3-methyl-1,3,4,9-tetrahydropyrido[3,4-b]indol-2-yl] methanone] | > 100
C[C@@H]1Cc2c([nH]c3ccccc23)[C@@H](c2c(F)cc(OCCN3CC(CF)C3)cc2F)N1C(=O)C1CC1F (stereo partly drawn) [Example 183, ((1R,3R)-1-(2,6-difluoro-4-(2-(3-(fluoromethyl)azetidin-1-yl)ethoxy)phenyl)-3-methyl-3,4-dihydro-1H-pyrido[3,4-b]indol-2(9H)-yl)(2-fluorocyclopropyl)methanone] | 4
C[C@@H]1CCN([C@@H](C)COc2cc(F)c([C@@H]3c4[nH]c5ccccc5c4C[C@@H](C)N3CC(C)(C)F)c(F)c2)C1 [Example 184] | 0.494
C[C@@H]1Cc2c([nH]c3ccccc23)[C@@H](c2c(F)cc(OCCN3CC(CF)C3)cc2F)N1C(=O)c1ccccc1 [Example 185, [(1R,3R)-1-[2,6-difluoro-4-[2-[3-(fluoromethyl)azetidin-1-yl]ethoxy]phenyl]-3-methyl-1,3,4,9-tetrahydropyrido[3,4-b]indol-2-yl]-phenyl-methanone] | 14
C[C@@H]1Cc2c([nH]c3ccccc23)[C@@H](c2c(F)cc(OCCN3CC(CF)C3)cc2F)N1CC1CC1 [Example 186, (1R,3R)-2-(cyclopropylmethyl)-1-[2,6-difluoro-4-[2-[3-(fluoromethyl)azetidin-1-yl]ethoxy]phenyl]-3-methyl-1,3,4,9-tetrahydropyrido[3,4-b]indole] | 2
C[C@@H]1Cc2c([nH]c3ccccc23)[C@@H](c2c(F)cc(OC3CN(CCC4CC4)C3)cc2F)N1CC(C)(C)F [Example 187, (1R,3R)-1-[4-[1-(2-cyclopropylethyl)azetidin-3-yl]oxy-2,6-difluoro-phenyl]-2-(2-fluoro-2-methyl-propyl)-3-methyl-1,3,4,9-tetrahydropyrido[3,4-b]indole] | 1
C=CCN1CC(Oc2cc(F)c([C@@H]3c4[nH]c5ccccc5c4C[C@@H](C)N3CC(C)(C)F)c(F)c2)C1 [Example 188, (1R,3R)-1-[4-(1-allylazetidin-3-yl)oxy-2,6-difluoro-phenyl]-2-(2-fluoro-2-methyl-propyl)-3-methyl-1,3,4,9-tetrahydropyrido[3,4-b]indole] | 0.128
C[C@@H]1Cc2c([nH]c3ccccc23)[C@@H](c2c(F)cc(OC3CN(CC4CCC4)C3)cc2F)N1CC(C)(C)F [Example 189, (1R,3R)-1-[4-[1-(cyclobutylmethyl)azetidin-3-yl]oxy-2,6-difluoro-phenyl]-2-(2-fluoro-2-methyl-propyl)-3-methyl-1,3,4,9-tetrahydropyrido[3,4-b]indole] | 1
CC(C)CCN1CC(Oc2cc(F)c([C@@H]3c4[nH]c5ccccc5c4C[C@@H](C)N3CC(C)(C)F)c(F)c2)C1 [Example 190, (1R,3R)-1-[2,6-difluoro-4-(1-isopentylazetidin-3-yl)oxy-phenyl]-2-(2-fluoro-2-methyl-propyl)-3-methyl-1,3,4,9-tetrahydropyrido[3,4-b]indole] | 2
CCC(C)CN1CC(Oc2cc(F)c([C@@H]3c4[nH]c5ccccc5c4C[C@@H](C)N3CC(C)(C)F)c(F)c2)C1 (stereo partly drawn) [Example 191, (1R,3R)-1-(2,6-difluoro-4-((1-(2-methylbutyl)azetidin-3-yl)oxy)phenyl)-2-(2-fluoro-2-methylpropyl)-3-methyl-2,3,4,9-tetrahydro-1H-pyrido[3,4-b]indole] | 0.267
CCCC(C)N1CC(Oc2cc(F)c([C@@H]3c4[nH]c5ccccc5c4C[C@@H](C)N3CC(C)(C)F)c(F)c2)C1 (stereo partly drawn) [Example 192, (1R,3R)-1-(2,6-difluoro-4-((1-(pentan-2-yl)azetidin-3-yl)oxy)phenyl)-2-(2-fluoro-2-methylpropyl)-3-methyl-2,3,4,9-tetrahydro-1H-pyrido[3,4-b]indole] | 1
C[C@@H]1Cc2c([nH]c3ccccc23)[C@@H](c2c(F)cc(OC3CN(C4CCC4)C3)cc2F)N1CC(C)(C)F [Example 193, (1R,3R)-1-[4-(1-cyclobutylazetidin-3-yl)oxy-2,6-difluoro-phenyl]-2-(2-fluoro-2-methyl-propyl)-3-methyl-1,3,4,9-tetrahydropyrido[3,4-b]indole] | 0.484
C[C@@H]1Cc2c([nH]c3ccccc23)[C@@H](c2c(F)cc(OC3CN(C4COC4)C3)cc2F)N1CC(C)(C)F [Example 194, (1R,3R)-1-[2,6-difluoro-4-[1-(oxetan-3-yl)azetidin-3-yl]oxy-phenyl]-2-(2-fluoro-2-methyl-propyl)-3-methyl-1,3,4,9-tetrahydropyrido[3,4-b]indole] | 0.077
C[C@@H]1Cc2c([nH]c3ccccc23)[C@@H](c2c(F)cc(OC3CN(C4CC4)C3)cc2F)N1CC(C)(C)F [Example 195, (1R,3R)-1-[4-(1-cyclopropylazetidin-3-yl)oxy-2,6-difluoro-phenyl]-2-(2-fluoro-2-methyl-propyl)-3-methyl-1,3,4,9-tetrahydropyrido[3,4-b]indole] | 0.165
C[C@@H]1Cc2c([nH]c3ccccc23)[C@@H](c2c(F)cc(SC3CN(CCCF)C3)cc2F)N1CC(C)(C)F [Example 196, (1R,3R)-1-[2,6-difluoro-4-[1-(3-fluoropropyl)azetidin-3-yl]sulfanyl-phenyl]-2-(2-fluoro-2-methyl-propyl)-3-methyl-1,3,4,9-tetrahydropyrido[3,4-b]indole] | 0.271
CC(C)CN1[C@H](c2c(F)cc(OCCN3CC(CF)C3)cc2F)c2[nH]c3ccccc3c2C[C@H]1C [Example 197, (1R,3R)-1-[2,6-difluoro-4-[2-[3-(fluoromethyl)azetidin-1-yl]ethoxy]phenyl]-2-isobutyl-3-methyl-1,3,4,9-tetrahydropyrido[3,4-b]indole] | 1
C[C@@H]1Cc2c([nH]c3ccccc23)[C@@H](c2c(F)cc(OCCN3CC(CF)C3)cc2F)N1C[C@H](C)c1ccccc1 [Example 198, (1R,3R)-1-(2,6-difluoro-4-(2-(3-(fluoromethyl)azetidin-1-yl)ethoxy)phenyl)-3-methyl-2-((R)-2-phenylpropyl)-2,3,4,9-tetrahydro-1H-pyrido[3,4-b]indole] | 2
C[C@H](CN1[C@H](c2c(F)cc(OCCN3CC(CF)C3)cc2F)c2[nH]c3ccccc3c2C[C@H]1C)c1ccccc1 [Example 199, (1R,3R)-1-(2,6-difluoro-4-(2-(3-(fluoromethyl)azetidin-1-yl)ethoxy)phenyl)-3-methyl-2-((S)-2-phenylpropyl)-2,3,4,9-tetrahydro-1H-pyrido[3,4-b]indole] | 2.32
CCCN1CC(Oc2cc(F)c([C@@H]3c4[nH]c5ccccc5c4C[C@@H](C)N3CC(C)C)c(F)c2)C1 [Example 200, (1R,3R)-1-[2,6-difluoro-4-(1-propylazetidin-3-yl)oxy-phenyl]-2-isobutyl-3-methyl-1,3,4,9-tetrahydropyrido[3,4-b]indole] | 0.408
C[C@@H]1Cc2c([nH]c3ccccc23)[C@@H](c2ccc(OC3CN(CCCF)C3)cc2)N1CC(C)(C)F [Example 201, (1R,3R)-2-(2-fluoro-2-methyl-propyl)-1-[4-[1-(3-fluoropropyl)azetidin-3-yl]oxyphenyl]-3-methyl-1,3,4,9-tetrahydropyrido[3,4-b]indole] | 0.315
